# Results as given in US20240124434A1, “ATF6 INHIBITORS AND USES THEREOF” (Altos Labs, Inc., priority 2018, published 2024).
# Like-named read-outs stand apart in the source and are kept apart here.
# System: ATF6
# Assay: ERSE ATF6-luciferase reporter assay (thapsigargin-induced ER stress)
# Type: cell-based, human
# Experimental: Human bone osteosarcoma (U2-OS) cells were obtained from the American Type Culture Collection (ATCC HTB-96, ATCC Manassas, VA) and were cultured with growing medium containing Dulbecco's Modified Eagle's Medium (DMEM) (Cat. No.:SH30023.02, HyClone) supplemented with fetal bovine serum (FBS) 10% (Cat. No.: 16000044, Gibco) and 1% penicillin-streptomycin antibiotic cocktail (Cat. No.: SV30010, Hyclone).
# Cignal Lenti ATF6 luc reporter (Qiagen #CLS-6031L) was used to produce a stable cell line in U2-OS cells. […] The number of response elements as well as the intervening sequence between response elements has been experimentally optimized to maximize the signal to noise ratio.
# Compounds were prepared as 10 mM stock solutions and stored at −80° C.
# U2-OS ATF6 luc reporter cells were thawed 3-4 days and split once prior to assays. […] At the day of experiment, cells were pre-treated for 30 min with 50 μL growing medium containing either vehicle (dimethyl sulfoxide (DMSO)) (Cat. No.: D2650, Sigma-Aldrich) or 1 μM test compound. After the pre-incubation time, 50 μL of a solution containing 0.2 μM thapsigargin (Tg)(an ER stress inducer) was added to respective wells. This Tg solution also contained vehicle or test compounds at 1 μM. The final concentration of DMSO in each well was kept at 0.3%. Plates were incubated for 8 hr in humidified chambers.
# Finally, after 8 hr, plates were cooled to room temperature for 10 min prior to luciferase assays. Luciferase reactions were performed using Luciferase Assay System (Cat. No.: E4550, Promega). Briefly, each well was washed with 100 μl of PBS1X and then 20 μl of lysis reagent were added into each well. Plates were shaken for 10 min, then 50 μl of Luciferase Assay Reagent were added to each well and luminescence was read with an integration time of 1 s and a gain of 110 in a Synergy 4 Microplate reader.
# For the assessment of the half-maximal inhibitory concentration (IC50) for selected compounds, dose-response assays were performed. Compounds were serially diluted using DMSO starting at 30 μM until 1 nM. The assays were run as described above.
# [1] = Homo sapiens, U2OS, 8 h, 1 μM test compound, thapsigargin-induced ER stress, U2-OS ATF6 luc reporter cells, 8 hr, read-out: Inh. ATF6-Luc @ 1 μM [%]
# [2] = Homo sapiens, U2OS, dose-response 30 μM to 1 nM, thapsigargin-induced ER stress, U2-OS ATF6 luc reporter cells, read-out: IC50 ATF6-Luc reporter
# [3] = Homo sapiens, U2OS, 8 h, read-out: Inh. ATF6-Luc @ 1 μM [%], 1 μM test compound, thapsigargin-induced ER stress, U2-OS ATF6 luc reporter cells, 8 hr
# [4] = Homo sapiens, U2OS, read-out: IC50 ATF6-Luc reporter [μM], dose-response 30 μM to 1 nM, thapsigargin-induced ER stress, U2-OS ATF6 luc reporter cells
IC50 [2] [µM],Compound,inhibition at 1 µM [1] [%],further results
> 10,"C[C@@H](c1ccc(C(F)(F)F)cc1C(F)(F)F)n1cc(NC(=O)c2cc(-c3ccccn3)[nH]n2)cn1 [Compound 120, (S)—N-(1-(1-(2,4-bis(trifluoromethyl)phenyl)ethyl)-1H-pyrazol-4-yl)-5-(pyridin-2-yl)-1H-pyrazole-3-carboxamide]",< 25,–
> 10,"O=C(Nc1cnn(Cc2ccc(C(F)(F)F)cc2C(F)(F)F)c1)c1nnc(-c2ccccn2)o1 [Compound 151, N-(1-(2,4-bis(trifluoromethyl)benzyl)-1H-pyrazol-4-yl)-5-(pyridin-2-yl)-1,3,4-oxadiazole-2-carboxamide]",< 25,–
> 10,"N#Cc1ccc(Cn2cc(NC(=O)c3cc(-c4ccco4)on3)cn2)cc1 [Compound 25, N-(1-(4-cyanobenzyl)-1H-pyrazol-4-yl)-5-(furan-2-yl)isoxazole-3-carboxamide]",< 25,–
–,"C[C@@H](c1ccc(C(F)(F)F)cc1C(F)(F)F)n1cc(NC(=O)c2cn(-c3ccccn3)nn2)cn1 [Compound 122, (S)—N-(1-(1-(2,4-bis(trifluoromethyl)phenyl)ethyl)-1H-pyrazol-4-yl)-1-(pyridin-2-yl)-1H-1,2,3-triazole-4-carboxamide]",–,inhibition at 1 µM [3]: < 25%; IC50 [4]: > 10 µM
> 10,"C[C@@H](c1ccc(C(F)(F)F)cc1C(F)(F)F)n1cc(NC(=O)c2cc(-c3cccnc3)on2)cn1 [Compound 37, (S)-N-(1-(1-(2,4-bis(trifluoromethyl)phenyl)ethyl)-1H-pyrazol-4-yl)-5-(pyridin-3-yl)isoxazole-3-carboxamide]",< 25,–
> 10,"Cc1nn(Cc2ccc(C(F)(F)F)cc2C(F)(F)F)cc1NC(=O)c1cc(-c2ccco2)on1 [Compound 92, N-(1-(2,4-bis(trifluoromethyl)benzyl)-3-methyl-1H-pyrazol-4-yl)-5-(furan-2-yl)isoxazole-3-carboxamide]",< 25,–
> 10,"O=C(Nc1cnn(Cc2c(Cl)cccc2Cl)c1)c1cnc(-c2ccco2)s1 [Compound 147, N-(1-(2,6-dichlorobenzyl)-1H-pyrazol-4-yl)-2-(furan-2-yl)thiazole-5-carboxamide]",< 25,–
> 10,"Cc1nc(-c2ccccn2)sc1C(=O)Nc1cnn([C@@H](C)c2ccc(C(F)(F)F)cc2C(F)(F)F)c1 [Compound 107, (S)—N-(1-(1-(2,4-bis(trifluoromethyl)phenyl)ethyl)-1H-pyrazol-4-yl)-4-methyl-2-(pyridin-2-yl)thiazole-5-carboxamide]",< 25,–
–,C[C@@H](c1ccc(C(F)(F)F)cc1C(F)(F)F)n1cc(NC(=O)c2nnc(-c3cnccn3)s2)cn1 [Compound 153],–,inhibition at 1 µM [3]: < 25%; IC50 [4]: > 10 µM
–,"C[C@@H](c1ccc(C(F)(F)F)cc1C(F)(F)F)n1cc(NC(=O)c2cnc(-c3ccccn3)s2)cn1 [Compound 105, (S)—N-(1-(1-(2,4-bis(trifluoromethyl)phenyl)ethyl)-1H-pyrazol-4-yl)-2-(pyridin-2-yl)thiazole-5-carboxamide]",–,inhibition at 1 µM [3]: < 25%; IC50 [4]: > 10 µM
> 10,"C[C@H](c1ccc(C(F)(F)F)cc1C(F)(F)F)n1cc(NC(=O)c2cnccn2)cn1 [Compound 142, (R)—N-(1-(1-(2,4-bis(trifluoromethyl)phenyl)ethyl)-1H-pyrazol-4-yl)pyrazine-2-carboxamide]",< 25,–
> 10,"C[C@H](c1ccc(C(F)(F)F)cc1C(F)(F)F)n1cc(NC(=O)c2cc(-c3ncccc3Cl)on2)cn1 [Compound 34, (R)-N-(1-(1-(2,4-bis(trifluoromethyl)phenyl)ethyl)-1H-pyrazol-4-yl)-5-(3-chloropyridin-2-yl)isoxazole-3-carboxamide]",< 25,–
> 10,"Cc1cccc(-c2cc(C(=O)Nc3cnn(Cc4ccc(C(F)(F)F)cc4C(F)(F)F)c3)no2)n1 [Compound 115, N-(1-(2,4-bis(trifluoromethyl)benzyl)-1H-pyrazol-4-yl)-5-(6-methylpyridin-2-yl)isoxazole-3-carboxamide]",25 to 50,–
–,Ceapin-A4 [reference compound],–,"Inh. ATF6-Luc @ 1 μM [%] (1 μM test compound, thapsigargin-induced ER stress, U2-OS ATF6 luc reporter cells, 8 hr): + (+ refers to <25% inhibition at 1 μM); IC50 (dose-response 30 μM to 1 nM, thapsigargin-induced ER stress, U2-OS ATF6 luc reporter cells, read-out: IC50 ATF6-Luc reporter): > 10 µM"
> 10,"Cc1nn(-c2ccc(C(F)(F)F)cc2C(F)(F)F)cc1NC(=O)/C=C/c1ccco1 [Compound 87, (E)—N-(1-(2,4-bis(trifluoromethyl)phenyl)-3-methyl-1H-pyrazol-4-yl)-3-(furan-2-yl)acrylamide]",< 25,–
< 1,"C[C@@H](c1ccc(C(F)(F)F)cc1C(F)(F)F)n1cc(NC(=O)c2nnc(-c3ccco3)s2)cn1 [Compound 161, (S)—N-(1-(1-(2,4-bis(trifluoromethyl)phenyl)ethyl)-1H-pyrazol-4-yl)-5-(furan-2-yl)-1,3,4-thiadiazole-2-carboxamide]",25 to 50,–
> 10,"Cc1cccc(-c2cc(C(=O)Nc3cnn([C@@H](C)c4ccc(C(F)(F)F)cc4C(F)(F)F)c3)no2)n1 [Compound 117, (S)—N-(1-(1-(2,4-bis(trifluoromethyl)phenyl)ethyl)-1H-pyrazol-4-yl)-5-(6-methylpyridin-2-yl)isoxazole-3-carboxamide]",< 25,–
–,"CC(c1ccc(C(F)(F)F)cc1C(F)(F)F)n1cc(NC(=O)c2cc(-c3ccco3)on2)cn1 (single isomer, unassigned) [“Enantiomer B” of Example S6, N-(1-(1-(2,4-bis(trifluoromethyl)phenyl)ethyl)-1H-pyrazol-4-yl)-5-(furan-2-yl)isoxazole-3-carboxamide]",–,"IC50: > 10 µM; Inh. ATF6-Luc @ 1 μM [%] (8 h, 1 µM): + (+ refers to <25% inhibition at 1 μM)"
> 10,"O=C(Nc1cnn(Cc2ccc(C(F)(F)F)cc2C(F)(F)F)c1)c1cc(-c2ncccc2Cl)on1 [Compound 31, N-(1-(2,4-bis(trifluoromethyl)benzyl)-1H-pyrazol-4-yl)-5-(3-chloropyridin-2-yl)isoxazole-3-carboxamide]",< 25,–
1 to 10,"O=C(Nc1cnn(Cc2ccc(C(F)(F)F)cc2C(F)(F)F)c1)c1cc(-c2ccncc2)on1 [Compound 10, N-(1-(2,4-bis(trifluoromethyl)benzyl)-1H-pyrazol-4-yl)-5-(pyridin-4-yl)isoxazole-3-carboxamide]",< 25,–
–,"C[C@@H](c1ccc(C(F)(F)F)cc1C(F)(F)F)n1cc(NC(=O)c2cc(-c3cnccn3)on2)cn1 [Compound 132, (S)—N-(1-(1-(2,4-bis(trifluoromethyl)phenyl)ethyl)-1H-pyrazol-4-yl)-5-(pyrazin-2-yl)isoazole-3-carboxamide]",–,inhibition at 1 µM [3]: < 25%; IC50 [4]: > 10 µM
> 10,"O=C(Nc1cnn(C(c2ccc(C(F)(F)F)cc2C(F)(F)F)C2CC2)c1)c1cc(-c2ccccn2)on1 (centres unmarked) [Compound 33, N-(1-((2,4-bis(trifluoromethyl)phenyl)(cyclopropyl)methyl)-1H-pyrazol-4-yl)-5-(pyridin-2-yl)isoxazole-3-carboxamide]",< 25,–
